Among the data in patent US12454529B2, “Piperazine cyclic ureas” (SIRONAX LTD., priority 2020, dated 2025) are EC50 values, retold here.

pEC50: −log10 of the molar value.

The test system of the first assay is HT-29 cells. The experiment in a line: HT-29 cell necrosis/necroptosis inhibition (TNF-α + SMAC mimetic + zVAD-FMK; CellTiter-Glo cell viability). In kind it is cell-based. The settings on record: Homo sapiens, HT-29, 20 h, read-out: EC50 (Cell activity; Necrosis/Necroptosis Inhibitory Activity, Compounds 1-142). In a few lines: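 HT-29 cells (~5,000/well) were switched to FBS-free McCOY's 5A holding TNF-α (10 ng/ml), SMAC mimetic (6 μM) and zVAD-FMK (10 μM), then dosed with a 10-point 1:3 series for 20 h at 37 °C. CellTiter-Glo luminescence gave viability; geometric mean EC50 from duplicates.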
In general terms: In ATP-based viability assays light output follows the ATP content of the culture.
As usually defined, the pEC50 is the EC50 on a negative log10 scale, so that one unit is a factor of ten. As for `Cc1nn(C[C@H]2CO2)c(C)c1-c1nc(N2CCN(C(=O)N3N=CC[C@H]3c3cc(F)cc(C#N)c3)CC2)ncc1F` [Compound 134, 3-((S)-1-(4-(4-(3,5-dimethyl-1-(((S)-oxiran-2-yl)methyl)-1H-pyrazol-4-yl)-5-fluoropyrimidin-2-yl)piperazine-1-carbonyl)-4,5-dihydro-1H-pyrazol-5-yl)-5-fluorobenzonitrile], the pEC50 is 7.00 to 10.00.

For `Cc1nn(CC#N)c(C)c1-c1nc(N2CCN(C(=O)N3N=CC[C@H]3c3cc(F)cc(C#N)c3)CC2)ncc1F` [Compound 136, (S)-3-(1-(4-(4-(1-(cyanomethyl)-3,5-dimethyl-1H-pyrazol-4-yl)-5-fluoropyrimidin-2-yl)piperazine-1-carbonyl)-4,5-dihydro-1H-pyrazol-5-yl)-5-fluorobenzonitrile], the pEC50 is 7.00 to 10.00.

The assay is the same for the next values; noted with them: Homo sapiens, HT-29, 20 h, read-out: EC50 (Cell activity; Necrosis/Necroptosis Inhibitory Activity, Compounds 143-323).
Consider `Cc1ncc(C#N)n1-c1nc(N2CCN(C(=O)N3N=CC[C@H]3c3cc(F)cc(C#N)c3)CC2)ncc1F` [Compound 148, 1-(2-(4-((S)-5-(3-cyano-5-fluorophenyl)-4,5-dihydro-1H-pyrazole-1-carbonyl)piperazin-1-yl)-5-fluoropyrimidin-4-yl)-2-methyl-1H-imidazole-5-carbonitrile], for which the pEC50 was 7.00 to 10.00.

The assay is the same for the next values; noted with them: Homo sapiens; HT-29 cells, TNF-α 10 ng/ml + SMAC mimetic 6 μM + zVAD-FMK 10 μM, 20 hours; geometric mean, 10 points in duplicate; read-out: EC50 (Cell activity; Necrosis/Necroptosis Inhibitory Activity, Compounds 1-142).
As for `Cc1nn(CC2CCOC2)c(C)c1-c1nc(N2CCN(C(=O)N3N=CC[C@H]3c3cc(F)cc(C#N)c3)CC2)ncc1F` (stereo partly drawn) [Compound 132, 3-((5S)-1-(4-(4-(3,5-dimethyl-1-((tetrahydrofuran-3-yl)methyl)-1H-pyrazol-4-yl)-5-fluoropyrimidin-2-yl)piperazine-1-carbonyl)-4,5-dihydro-1H-pyrazol-5-yl)-5-fluorobenzonitrile], the pEC50 was 7.00 to 10.00. On the same count and under the same terms, next, `Cc1nc(C)n(-c2nc(N3CCN(C(=O)N4N=CC[C@H]4c4cc(F)cc(C#N)c4)CC3)ncc2F)n1` [Compound 47, (S)-3-(1-(4-(4-(3,5-dimethyl-1H-1,2,4-triazol-1-yl)-5-fluoropyrimidin-2-yl)piperazine-1-carbonyl)-4,5-dihydro-1H-pyrazol-5-yl)-5-fluorobenzonitrile]: 7.00 to 10.00. On the same count and under the same terms, with `NC(=O)Cn1cc(-c2nc(N3CCN(C(=O)N4N=CC[C@H]4c4cc(F)cc(F)c4)CC3)ncc2F)cn1` [Compound 53, (S)-2-(4-(2-(4-(5-(3,5-difluorophenyl)-4,5-dihydro-1H-pyrazole-1-carbonyl)piperazin-1-yl)-5-fluoropyrimidin-4-yl)-1H-pyrazol-1-yl)acetamide] the figure was 7.00 to 10.00.

As to `Cc1n[nH]nc1-c1nc(N2CCN(C(=O)N3N=CC[C@H]3c3cc(F)cc(C#N)c3)CC2)ncc1F` [Compound 80, (S)-3-fluoro-5-(1-(4-(5-fluoro-4-(5-methyl-2H-1,2,3-triazol-4-yl)pyrimidin-2-yl)piperazine-1-carbonyl)-4,5-dihydro-1H-pyrazol-5-yl)benzonitrile], the pEC50 is 7.00 to 10.00. For the compound `COC(=O)c1c[nH]c(-c2nc(N3CCN(C(=O)N4N=CC[C@H]4c4cc(F)cc(F)c4)CC3)ncc2F)c1` [Compound 12, methyl (S)-5-(2-(4-(5-(3,5-difluorophenyl)-4,5-dihydro-1H-pyrazole-1-carbonyl)piperazin-1-yl)-5-fluoropyrimidin-4-yl)-1H-pyrrole-3-carboxylate], the negative-log EC50 (pEC50) was 7.00 to 10.00. Regarding `Cc1nn(CC(N)=O)nc1-c1nc(N2CCN(C(=O)N3N=CC[C@H]3c3cc(F)cc(C#N)c3)CC2)ncc1F` [Compound 78, (S)-2-(4-(2-(4-(5-(3-cyano-5-fluorophenyl)-4,5-dihydro-1H-pyrazole-1-carbonyl)piperazin-1-yl)-5-fluoropyrimidin-4-yl)-5-methyl-2H-1,2,3-triazol-2-yl)acetamide], the pEC50 was 7.00 to 10.00. On to `Cn1ncnc1-c1nc(N2CCN(C(=O)N3N=CC[C@H]3c3cc(F)cc(F)c3)CC2)ncc1F` [Compound 65, (S)-(5-(3,5-difluorophenyl)-4,5-dihydro-1H-pyrazol-1-yl)(4-(5-fluoro-4-(1-methyl-1H-1,2,4-triazol-5-yl)pyrimidin-2-yl)piperazin-1-yl)methanone], for which the pEC50 is 7.00 to 10.00. On to `Cn1nncc1-c1nc(N2CCN(C(=O)N3N=CC[C@H]3c3cc(F)cc(F)c3)CC2)ncc1F` [Compound 44, (S)-(5-(3,5-difluorophenyl)-4,5-dihydro-1H-pyrazol-1-yl)(4-(5-fluoro-4-(1-methyl-1H-1,2,3-triazol-5-yl)pyrimidin-2-yl)piperazin-1-yl)methanone], for which the pEC50 was 7.00 to 10.00.

The assay is the same for the next values; noted with them: Homo sapiens; HT-29 cells, TNF-α 10 ng/ml + SMAC mimetic 6 μM + zVAD-FMK 10 μM, 20 hours; geometric mean, 10 points in duplicate; read-out: EC50 (Cell activity; Necrosis/Necroptosis Inhibitory Activity, Compounds 143-323).
For the compound `Cc1nc(C)n(-c2nc(N3CCN(C(=O)N4N=CCC4c4cc(C#N)cc(F)c4F)CC3)ncc2F)n1` (stereo not drawn) [Compound 238, 3-(1-(4-(4-(3,5-dimethyl-1H-1,2,4-triazol-1-yl)-5-fluoropyrimidin-2-yl)piperazine-1-carbonyl)-4,5-dihydro-1H-pyrazol-5-yl)-4,5-difluorobenzonitrile], the pEC50 is 7.00 to 10.00. The same measure, in the same setting: with `Cc1cc(C(F)(F)F)nn1-c1nc(N2CCN(C(=O)N3N=CC[C@H]3c3cc(F)cc(F)c3)CC2)ncc1F` [Compound 196, (S)-(5-(3,5-difluorophenyl)-4,5-dihydro-1H-pyrazol-1-yl)(4-(5-fluoro-4-(5-methyl-3-(trifluoromethyl)-1H-pyrazol-1-yl)pyrimidin-2-yl)piperazin-1-yl)methanone] the figure was 7.00 to 10.00. On the same count and under the same terms, with `Cc1nnc(-c2nc(N3CCN(C(=O)N4N=CC[C@H]4c4cc(F)cc(F)c4)CC3)ncc2F)o1` [Compound 187, (S)-(5-(3,5-difluorophenyl)-4,5-dihydro-1H-pyrazol-1-yl)(4-(5-fluoro-4-(5-methyl-1,3,4-oxadiazol-2-yl)pyrimidin-2-yl)piperazin-1-yl)methanone] the figure was 7.00 to 10.00; with `Cc1c(-c2nc(N3CCN(C(=O)N4N=CC[C@H]4c4cc(F)cc(C#N)c4)CC3)ncc2F)c(CO)nn1C` [Compound 165, (S)-3-fluoro-5-(1-(4-(5-fluoro-4-(3-(hydroxymethyl)-1,5-dimethyl-1H-pyrazol-4-yl)pyrimidin-2-yl)piperazine-1-carbonyl)-4,5-dihydro-1H-pyrazol-5-yl)benzonitrile], 7.00 to 10.00; with `Cc1cnn(C)c1-c1nc(N2CCN(C(=O)N3N=CC[C@H]3c3cc(F)cc(F)c3)CC2)sc1CO` [Compound 267, (S)-(5-(3,5-difluorophenyl)-4,5-dihydro-1H-pyrazol-1-yl)(4-(4-(1,4-dimethyl-1H-pyrazol-5-yl)-5-(hydroxymethyl)thiazol-2-yl)piperazin-1-yl)methanone], 5.00 to 6.00.

For `Cc1nn(-c2ccnc(N3CCN(C(=O)N4N=CC[C@H]4c4cc(F)cc(C#N)c4)CC3)n2)c(C)c1Cl` [Compound 288, (S)-3-(1-(4-(4-(4-chloro-3,5-dimethyl-1H-pyrazol-1-yl)pyrimidin-2-yl)piperazine-1-carbonyl)-4,5-dihydro-1H-pyrazol-5-yl)-5-fluorobenzonitrile], the pEC50 is 7.00 to 10.00. As to `O=C(N1CCN(c2ncc(F)c(-n3nccc3C(F)(F)F)n2)CC1)N1N=CC[C@H]1c1ccccc1` [Compound 307, (S)-(4-(5-fluoro-4-(5-(trifluoromethyl)-1H-pyrazol-1-yl)pyrimidin-2-yl)piperazin-1-yl)(5-phenyl-4,5-dihydro-1H-pyrazol-1-yl)methanone], the negative logarithm of the EC50 (pEC50) was 7.00 to 10.00.

As to `N#Cc1cc(F)cc([C@@H]2CC=NN2C(=O)N2CCN(c3ncc(F)c(-n4cnc(C(F)(F)F)n4)n3)CC2)c1` [Compound 306, (S)-3-fluoro-5-(1-(4-(5-fluoro-4-(3-(trifluoromethyl)-1H-1,2,4-triazol-1-yl)pyrimidin-2-yl)piperazine-1-carbonyl)-4,5-dihydro-1H-pyrazol-5-yl)benzonitrile], the pEC50 is 7.00 to 10.00. On to `Cc1nc(C)n(-c2nc(N3CCN(C(=O)N4N=CC[C@H]4c4cnc(C)s4)CC3)ncc2F)n1` [Compound 240, (S)-(4-(4-(3,5-dimethyl-1H-1,2,4-triazol-1-yl)-5-fluoropyrimidin-2-yl)piperazin-1-yl)(5-(2-methylthiazol-5-yl)-4,5-dihydro-1H-pyrazol-1-yl)methanone], for which the pEC50 is 7.00 to 10.00. For the compound `Cc1cnn(C)c1-c1ccc(F)c(N2CCN(C(=O)N3N=CCC3c3ccccn3)CC2)n1` (stereo not drawn) [Compound 297, (4-(6-(1,4-dimethyl-1H-pyrazol-5-yl)-3-fluoropyridin-2-yl)piperazin-1-yl)(5-(pyridin-2-yl)-4,5-dihydro-1H-pyrazol-1-yl)methanone], the pEC50 is 7.00 to 10.00. Turning to `Cc1cnn(C)c1-c1ccc(F)c(N2CCN(C(=O)N3N=CCC3c3ncccc3Cl)CC2)n1` (stereo not drawn) [Compound 300, (5-(3-chloropyridin-2-yl)-4,5-dihydro-1H-pyrazol-1-yl)(4-(6-(1,4-dimethyl-1H-pyrazol-5-yl)-3-fluoropyridin-2-yl)piperazin-1-yl)methanone], the pEC50 is 7.00 to 10.00.

For `Cc1nn(-c2nc(N3CCN(C(=O)N4N=CC[C@H]4c4cc(F)cc(C#N)c4)CC3)ncc2F)c(C)c1C#N` [Compound 275, (S)-1-(2-(4-(5-(3-cyano-5-fluorophenyl)-4,5-dihydro-1H-pyrazole-1-carbonyl)piperazin-1-yl)-5-fluoropyrimidin-4-yl)-3,5-dimethyl-1H-pyrazole-4-carbonitrile], the negative-log EC50 (pEC50) was 7.00 to 10.00. Still for that read-out and setting: with `Cn1nc(C#N)nc1-c1nc(N2CCN(C(=O)N3N=CCC3c3cc(F)cc(F)c3)CC2)ncc1F` (stereo not drawn) [Compound 228, 5-(2-(4-(5-(3,5-difluorophenyl)-4,5-dihydro-1H-pyrazole-1-carbonyl)piperazin-1-yl)-5-fluoropyrimidin-4-yl)-1-methyl-1H-1,2,4-triazole-3-carbonitrile] the figure was 7.00 to 10.00.
